Experimental data published in patent publication US20260115180A1, “TREATMENT OF HYPOTHALAMIC OBESITY” (Saniona A/S, priority 2020, published 2026).

Assays:
[1] = in vivo; cited from earlier work
[2] = cited from earlier work
[3] = Phase 2 double-blind, randomized, placebo-controlled trial of Tesomet in hypothalamic obesity, Part 1 (24 weeks); format: in vivo, human; details: after 24 weeks of treatment (FIG. 3a)
Excerpt: The overall safety and tolerability of co-administration of tesofensine and metoprolol (Tesomet) in subjects with hypothalamic injury-induced obesity (HIO) was studied in a phase 2, double-blind, randomized, placebo-controlled, single-center safety and efficacy study followed by with an open-label extension, in total 48 weeks: • Part 1:24 Weeks double blinded treatment followed by • Part 2:24 weeks open lable extension.
The studied population were subjects suffering from obesity developed in relation to damage to the hypothalamus (HO), whether it is from an injuring trauma, bleeding, infaction, tumor, surgery or irradiation. […]
This randomized, double-blind, placebo-controlled Phase 2 trial evaluated Tesomet (tesofensine 0.5 mg+metoprolol 50 mg) administered daily in patients with HO, conducted at Rigshospitalet in Copenhagen, Denmark.
The primary endpoint of the study was overall safety and tolerability measured by all safety data collected during the study including recorded adverse events, laboratory data, blood pressure, and heart rate. […]
Continuous efficacy secondary endpoints were compared between treatment arms by means using Analysis of Co-variance (ANCOVA) including treatment as fixed factor and baseline value as covariate. Estimates and 95% confidence intervals of treatment differences were calculated

[4] = rat model of diet-induced obesity; cited from earlier work
[5] = Open-label extension of the Phase 2 study TM005 (additional 24 weeks, 48 weeks in total); format: in vivo, human
Procedure: All subjects: co-administration of 0.5 mg tesofensine/50 mg metoprolol ER daily for 24 weeks. One tablet for each product.
TM005 was a 24-week phase 2, double-blind, randomized, placebo-controlled, single-centre, safety and efficacy study followed by a 24-week open-label extension treatment period designed to evaluate overall safety and tolerability of Tesomet (co-administration of 0.5 mg tesofensine and 50 mg metoprolol) in patients with hypothalamic obesity (HO).
The primary endpoint of the study was overall safety and tolerability measured by all safety data collected during the study including recorded adverse events, laboratory data, blood pressure, and heart rate. The secondary efficacy endpoints included bodyweight, waist circumference, glycemic control and other measures. In the double-blind (DB) period of the study, patients received either Tesomet or matching placebo (2:1 randomization) for 24 weeks.
A total of 21 patients (13 Tesomet, 8 placebo) were randomized into the double blind (DB) period. All patients who completed the DB period of the study were provided the opportunity to receive Tesomet in an open-label extension (OLE) period of the study for an additional 24 weeks. All 18 patients who completed the DB period chose to participate in the OLE period and all of these patients completed the OLE period. […]

SMILES	Half-life of beta blockers [1] [h]	Nocturnal energy expenditure ([2]; human subjects)	Weight loss in obese patients, corrected for placebo and diet effects ([2]; long-term treatment)	Share of patients with at least 5% weight loss [3]	Body weight in DIO rats [4]	Share of patients with at least 10% weight loss ([5]; FIG. 3b)	Body weight after 48 weeks of Tesomet ([5]; baseline to Week 48, 24 weeks double-blind + 24 weeks open-label (FIG. 5))
COc1ccccc1OCCNCC(O)COc1cccc2[nH]c3ccccc3c12 (racemic) [carvedilol, (±)-[3-(9H-carbazol-4-yloxy)-2-hydroxypropyl][2-(2-methoxyphenoxy)ethyl]amine]	7 to 10						
CCOC[C@@H]1[C@@H](c2ccc(Cl)c(Cl)c2)C[C@@H]2CC[C@H]1N2C [Tesofensine, (1R,2R,3S,5S)-3-(3,4-dichlorophenyl)-2-(ethoxymethyl)-8-methyl-8-azabicyclo[3.2.1]octane]		increase nocturnal energy expenditure	about 10%	approximately ⅔	robust and sustained weight loss	33-41%	maintained
COCCc1ccc(OCC(O)CNC(C)C)cc1 (centres unmarked) [metoprolol, 1-(Isopropylamino)-3-[4-(2-methoxyethyl)-phenoxy]-propan-2-ol]	3 to 4						
